Data as given in ChEMBL document CHEMBL1146101, “Fluorine-substituted cyclofenil derivatives as estrogen receptor ligands: synthesis and structure-affinity relationship study of potential positron emission tomography agents for imaging estrogen receptors in breast cancer” (J Med Chem, 2006).

Columns and labels:
Homo sapiens = species on record: Homo sapiens; experiment: Selectivity for ERbeta over ERalpha
[1] = molecular target: Estrogen receptor alpha (Homo sapiens) (UniProt P03372); experiment: Binding affinity to human ERalpha relative to estradiol by radiometric binding assay
Chain of Estrogen receptor alpha (Homo sapiens) (P03372 whole entry, looked up): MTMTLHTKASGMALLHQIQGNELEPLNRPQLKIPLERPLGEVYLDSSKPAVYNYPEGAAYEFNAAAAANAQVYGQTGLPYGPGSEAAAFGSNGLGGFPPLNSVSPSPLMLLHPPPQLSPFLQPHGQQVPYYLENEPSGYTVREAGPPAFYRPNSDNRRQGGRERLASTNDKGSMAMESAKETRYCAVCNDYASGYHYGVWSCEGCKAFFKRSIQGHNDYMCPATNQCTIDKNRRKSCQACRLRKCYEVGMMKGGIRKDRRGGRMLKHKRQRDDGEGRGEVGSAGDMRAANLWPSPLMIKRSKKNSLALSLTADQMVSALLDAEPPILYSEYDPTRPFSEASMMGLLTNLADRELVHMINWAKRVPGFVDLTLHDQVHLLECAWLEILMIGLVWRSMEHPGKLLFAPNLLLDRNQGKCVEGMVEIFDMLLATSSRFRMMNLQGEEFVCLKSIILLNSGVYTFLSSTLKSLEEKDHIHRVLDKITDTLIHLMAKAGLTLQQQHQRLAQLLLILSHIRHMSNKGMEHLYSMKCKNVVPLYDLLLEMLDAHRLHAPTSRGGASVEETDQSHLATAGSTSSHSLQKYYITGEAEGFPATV

[2] = molecular target: Estrogen receptor beta (Homo sapiens) (UniProt Q92731); experiment: Binding affinity to human ERbeta relative to estradiol by radiometric binding assay
Chain of Estrogen receptor beta (Homo sapiens) (Q92731 whole entry, looked up): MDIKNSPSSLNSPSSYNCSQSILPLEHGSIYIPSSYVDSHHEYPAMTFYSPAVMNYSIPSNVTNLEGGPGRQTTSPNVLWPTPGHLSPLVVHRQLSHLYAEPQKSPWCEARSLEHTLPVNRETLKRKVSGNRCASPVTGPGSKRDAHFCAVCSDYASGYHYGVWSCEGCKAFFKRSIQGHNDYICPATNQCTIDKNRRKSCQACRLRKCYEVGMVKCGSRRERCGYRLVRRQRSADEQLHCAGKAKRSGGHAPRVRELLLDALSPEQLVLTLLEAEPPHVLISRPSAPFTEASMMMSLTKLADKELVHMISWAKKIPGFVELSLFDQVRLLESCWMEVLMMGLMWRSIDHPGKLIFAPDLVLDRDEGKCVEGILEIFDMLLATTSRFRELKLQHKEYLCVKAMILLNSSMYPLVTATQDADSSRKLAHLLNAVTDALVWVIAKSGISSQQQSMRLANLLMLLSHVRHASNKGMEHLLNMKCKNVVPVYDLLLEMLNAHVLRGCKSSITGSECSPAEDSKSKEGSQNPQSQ

Oc1ccc(C(=C2CCC(O)CC2)c2ccc(O)cc2)cc1 (configuration not stated)
Ratio (Homo sapiens): 0.94
relative binding affinity (RBA) [1]: 0.327
relative binding affinity (RBA) [2]: 0.307

CCOC(=O)C1CCC(=C(c2ccc(O)cc2)c2ccc(O)cc2)CC1 (configuration not stated)
Ratio (Homo sapiens): 0.45
relative binding affinity (RBA) [1]: 6.77
relative binding affinity (RBA) [2]: 3.02

Oc1ccc(C(=C2CCCCC2)c2ccc(O)cc2)cc1
Ratio (Homo sapiens): 2.3
relative binding affinity (RBA) [1]: 124
relative binding affinity (RBA) [2]: 285

CC1CCC(=C(c2ccc(O)cc2)c2ccc(O)cc2)CC1 (configuration not stated)
Ratio (Homo sapiens): 4.1
relative binding affinity (RBA) [1]: 66.5
relative binding affinity (RBA) [2]: 274

Oc1ccc(C(=C2CCC(F)CC2)c2ccc(O)cc2)cc1 (configuration not stated)
Ratio (Homo sapiens): 2.3
relative binding affinity (RBA) [1]: 27
relative binding affinity (RBA) [2]: 61.8

COC(=O)CC1CCCC(=C(c2ccc(O)cc2)c2ccc(O)cc2)C1 (configuration not stated)
Ratio (Homo sapiens): 0.18
relative binding affinity (RBA) [1]: 58.5
relative binding affinity (RBA) [2]: 10.3

CCOCC1CCC(=C(c2ccc(O)cc2)c2ccc(O)cc2)CC1 (configuration not stated)
Ratio (Homo sapiens): 0.58
relative binding affinity (RBA) [1]: 4.88
relative binding affinity (RBA) [2]: 2.82

OCCC1CCC(=C(c2ccc(O)cc2)c2ccc(O)cc2)CC1 (configuration not stated)
Ratio (Homo sapiens): 0.14
relative binding affinity (RBA) [1]: 2.61
relative binding affinity (RBA) [2]: 0.372

Oc1ccc(C(=C2CCCC(CCCF)C2)c2ccc(O)cc2)cc1 (configuration not stated)
Ratio (Homo sapiens): 0.57
relative binding affinity (RBA) [1]: 160
relative binding affinity (RBA) [2]: 91.4

OCCCC1CCCC(=C(c2ccc(O)cc2)c2ccc(O)cc2)C1 (configuration not stated)
Ratio (Homo sapiens): 0.98
relative binding affinity (RBA) [1]: 47.2
relative binding affinity (RBA) [2]: 46.1

Oc1ccc(C(=C2CCCC2)c2ccc(O)cc2)cc1
Ratio (Homo sapiens): 7.7
relative binding affinity (RBA) [1]: 17.8
relative binding affinity (RBA) [2]: 137

Oc1ccc(C(=C2CCC2)c2ccc(O)cc2)cc1
Ratio (Homo sapiens): 3.7
relative binding affinity (RBA) [1]: 5.61
relative binding affinity (RBA) [2]: 20.5

COC(=O)CC1CCC(=C(c2ccc(O)cc2)c2ccc(O)cc2)CC1 (configuration not stated)
Ratio (Homo sapiens): 0.16
relative binding affinity (RBA) [1]: 10.7
relative binding affinity (RBA) [2]: 1.72

Oc1ccc(C(=C2CCC(CCF)CC2)c2ccc(O)cc2)cc1 (configuration not stated)
Ratio (Homo sapiens): 1.2
relative binding affinity (RBA) [1]: 15.9
relative binding affinity (RBA) [2]: 18.9

CCC1CCC(=C(c2ccc(O)cc2)c2ccc(O)cc2)CC1 (configuration not stated)
Ratio (Homo sapiens): 1.2
relative binding affinity (RBA) [1]: 62.7
relative binding affinity (RBA) [2]: 75.6

COC(=O)C(C(=O)OC)C1CCCC(=C(c2ccc(O)cc2)c2ccc(O)cc2)C1 (configuration not stated)
Ratio (Homo sapiens): 0.012
relative binding affinity (RBA) [1]: 19.5
relative binding affinity (RBA) [2]: 0.234

OCC1CCC(=C(c2ccc(O)cc2)c2ccc(O)cc2)CC1 (configuration not stated)
Ratio (Homo sapiens): 0.99
relative binding affinity (RBA) [1]: 0.846
relative binding affinity (RBA) [2]: 0.841

Oc1ccc(C(=C2CCC(CF)CC2)c2ccc(O)cc2)cc1 (configuration not stated)
Ratio (Homo sapiens): 2.3
relative binding affinity (RBA) [1]: 18.1
relative binding affinity (RBA) [2]: 41.5

Oc1ccc(C(=C2CCCCCC2)c2ccc(O)cc2)cc1
Ratio (Homo sapiens): 3.2
relative binding affinity (RBA) [1]: 110
relative binding affinity (RBA) [2]: 354

Oc1ccc(C(=C2CCCC(CCF)C2)c2ccc(O)cc2)cc1 (configuration not stated)
Ratio (Homo sapiens): 1.1
relative binding affinity (RBA) [1]: 122
relative binding affinity (RBA) [2]: 129

Oc1ccc(C(=C2CCC(CCOCCCCF)CC2)c2ccc(O)cc2)cc1 (configuration not stated)
Ratio (Homo sapiens): 0.38
relative binding affinity (RBA) [1]: 3.77
relative binding affinity (RBA) [2]: 1.45

OCC1CCCC(=C(c2ccc(O)cc2)c2ccc(O)cc2)C1 (configuration not stated)
Ratio (Homo sapiens): 1.6
relative binding affinity (RBA) [1]: 24.8
relative binding affinity (RBA) [2]: 39.6

OCCC1CCCC(=C(c2ccc(O)cc2)c2ccc(O)cc2)C1 (configuration not stated)
Ratio (Homo sapiens): 1.7
relative binding affinity (RBA) [1]: 33.9
relative binding affinity (RBA) [2]: 57.6

COC(=O)C1CCCC(=C(c2ccc(O)cc2)c2ccc(O)cc2)C1 (configuration not stated)
Ratio (Homo sapiens): 1.5
relative binding affinity (RBA) [1]: 23.7
relative binding affinity (RBA) [2]: 36.5
